{"source": "ChEMBL document CHEMBL4350984", "about": "“Natural products as multidrug resistance modulators in cancer” (Eur J Med Chem, 2019)", "key": {"cells": {"experiment": "cells", "conditions": "Homo sapiens, 72 h", "description": "Downregulation of ABCB1 gene expression in human EPG85-257RDB cells after 72 hrs by RT-PCR analysis"}, "Homo sapiens [1]": {"organism": "Homo sapiens", "experiment": "Inhibition of BCRP-mediated mitoxantrone efflux in human NCI-H460/MX20 cells assessed as mitoxantrone accumulation at 20 uM after 15 mins by Hoechst 33342 staining based flow cytometry analysis relative to control", "assay_type": "cell-based", "set-up": "scale not given: the % may be the effect or the level left"}, "[2]": {"experiment": "Cytotoxicity against human KBv200 cells assessed as reduction in cell viability", "assay_type": "functional, cell-based"}, "Homo sapiens [3]": {"organism": "Homo sapiens", "experiment": "Inhibition of BCRP-mediated mitoxantrone efflux in human NCI-H460/MX20 cells assessed as mitoxantrone accumulation at 10 uM after 15 mins by Hoechst 33342 staining based flow cytometry analysis relative to control", "assay_type": "cell-based", "set-up": "scale not given: the % may be the effect or the level left"}}, "note": "pIC50: −log10 of the molar value."}
{"smiles": "O=c1c(O)c(-c2ccc(O)c(O)c2)oc2cc(O)cc(O)c12", "note": "[QUERCETIN]", "values": [{"measurement": "pIC50", "setting": "cells", "value": 4.92}]}
{"smiles": "COC(=O)c1c(-c2ccc(O)cc2)c(-c2ccc(O)cc2)cn1CC(=O)c1ccc(OC)cc1", "values": [{"measurement": "Activity", "setting": "Homo sapiens [1]", "value": 94.5, "unit": "%"}]}
{"smiles": "COc1ccc2cc1Oc1ccc(cc1)C[C@H]1c3cc(c(OC)cc3CCN1C)Oc1c(OC)c(OC)cc3c1[C@H](C2)N(C)CC3", "note": "[FANCHININ]", "values": [{"measurement": "pIC50", "setting": "[2]", "value": 5.70}]}
{"smiles": "COc1ccc2c3c([nH]c2c1)[C@H](C=C(C)C)N1C(=O)[C@@H]2CCCN2C(=O)[C@@H]1C3", "values": [{"measurement": "Activity", "setting": "Homo sapiens [3]", "value": 100, "unit": "%"}]}
